According to paper PMC11845477, “Exploring the principles behind antibiotics with limited resistance” (Nature Communications, 2025):

Experiments:
[1] = system: A. baumannii ATCC 17978 (SEN) and A. baumannii ATCC BAA-1605 (MDR); experiment: Adaptive laboratory evolution (ALE), relative MIC of evolved lines; format: cell-based, Acinetobacter baumannii; details: for Relative MIC (log10): AB-SEN (Acinetobacter baumannii ATCC 17978)
Outline: (§1)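 Ten parallel populations per antibiotic–ancestor pair were evolved in MHB at 37 °C, starting near 50% growth-inhibiting drug. Every 72 h they were passaged into 0.5–2.5× increasing concentrations, keeping the highest-drug well with OD600 > 0.2.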

[2] = system: K. pneumoniae ATCC 10031 (SEN) and K. pneumoniae ATCC 700603 (MDR); experiment: as above; format: cell-based, Klebsiella pneumoniae; details: for Relative MIC (log10): KP-SEN (Klebsiella pneumoniae ATCC 10031)
Outline: as §1

[3] = evolved line 4 adapted to the named antibiotic
[4] = evolved line 5 adapted to the named antibiotic
[5] = evolved line 8 adapted to the named antibiotic

In the case of `C[C@H]1c2cccc(O)c2C(=O)C2=C(O)[C@]3(O)C(=O)C(C(N)=O)=C(O)[C@@H](N(C)C)[C@@H]3[C@@H](O)[C@@H]21` [Doxycycline], the “Relative MIC” value ([1]; AB-SEN (ATCC 17978), evolved line 1, MIC of evolved line / MIC of ancestor) is reported as 32, the “Relative MIC” value ([1]; AB-SEN (ATCC 17978), evolved line 2, MIC of evolved line / MIC of ancestor) is reported as 64 and the “Relative MIC” value ([1]; AB-SEN (ATCC 17978), evolved line 3, MIC of evolved line / MIC of ancestor) is reported as 16. For the same compound, the “Relative MIC” value ([1]; AB-SEN (ATCC 17978), evolved line 4, MIC of evolved line / MIC of ancestor) was 32, the “Relative MIC” value ([1]; AB-SEN (ATCC 17978), evolved line 5, MIC of evolved line / MIC of ancestor) was 32 and the “Relative MIC” value ([1]; AB-SEN (ATCC 17978), evolved line 6, MIC of evolved line / MIC of ancestor) was 16. The “Relative MIC” value ([1]; AB-SEN (ATCC 17978), evolved line 7, MIC of evolved line / MIC of ancestor) was 32, the “Relative MIC” value ([1]; AB-SEN (ATCC 17978), evolved line 8, MIC of evolved line / MIC of ancestor) was 32 and the “Relative MIC” value ([1]; AB-SEN (ATCC 17978), evolved line 9, MIC of evolved line / MIC of ancestor) was 16. The “Relative MIC” value ([1]; AB-SEN (ATCC 17978), evolved line 10, MIC of evolved line / MIC of ancestor) was 16, the “Relative MIC (log10)” value ([1]; evolved line 2 adapted to the named antibiotic) was 1.806 and the “Relative MIC (log10)” value [1, 3] was 1.505. For the same compound, the “Relative MIC (log10)” value [1, 4] was 1.505, the “Relative MIC (log10)” value ([1]; evolved line 7 adapted to the named antibiotic) was 1.505 and the “Relative MIC (log10)” value [1, 5] was 1.505. For the same compound, the “Relative MIC” value ([1]; Acinetobacter baumannii ATCC 17978 (AB-SEN), evolved line 1) was 32, the “Relative MIC” value ([1]; Acinetobacter baumannii ATCC 17978 (AB-SEN), evolved line 2) was 64 and the “Relative MIC” value ([1]; Acinetobacter baumannii ATCC 17978 (AB-SEN), evolved line 3) was 16. The “Relative MIC” value ([1]; Acinetobacter baumannii ATCC 17978 (AB-SEN), evolved line 4) was 32, the “Relative MIC” value ([1]; Acinetobacter baumannii ATCC 17978 (AB-SEN), evolved line 5) was 32 and the “Relative MIC” value ([1]; Acinetobacter baumannii ATCC 17978 (AB-SEN), evolved line 6) was 16. The “Relative MIC” value ([1]; Acinetobacter baumannii ATCC 17978 (AB-SEN), evolved line 7) was 32, the “Relative MIC” value ([1]; Acinetobacter baumannii ATCC 17978 (AB-SEN), evolved line 8) was 32 and the “Relative MIC” value ([1]; Acinetobacter baumannii ATCC 17978 (AB-SEN), evolved line 9) was 16. For the same compound, the “Relative MIC” value ([1]; Acinetobacter baumannii ATCC 17978 (AB-SEN), evolved line 10) was 16, the “Relative MIC” value ([2]; KP-SEN (ATCC 10031), evolved line 1, MIC of evolved line / MIC of ancestor) was 32 and the “Relative MIC” value ([2]; KP-SEN (ATCC 10031), evolved line 2, MIC of evolved line / MIC of ancestor) was 64. The “Relative MIC” value ([2]; KP-SEN (ATCC 10031), evolved line 3, MIC of evolved line / MIC of ancestor) was 32, the “Relative MIC” value ([2]; KP-SEN (ATCC 10031), evolved line 4, MIC of evolved line / MIC of ancestor) was 256 and the “Relative MIC” value ([2]; KP-SEN (ATCC 10031), evolved line 5, MIC of evolved line / MIC of ancestor) was 256. The “Relative MIC” value ([2]; KP-SEN (ATCC 10031), evolved line 6, MIC of evolved line / MIC of ancestor) was 256, the “Relative MIC” value ([2]; KP-SEN (ATCC 10031), evolved line 7, MIC of evolved line / MIC of ancestor) was 256 and the “Relative MIC” value ([2]; KP-SEN (ATCC 10031), evolved line 8, MIC of evolved line / MIC of ancestor) was 256. The “Relative MIC” value ([2]; KP-SEN (ATCC 10031), evolved line 9, MIC of evolved line / MIC of ancestor) was 256, the “Relative MIC” value ([2]; KP-SEN (ATCC 10031), evolved line 10, MIC of evolved line / MIC of ancestor) was 128 and the “Relative MIC (log10)” value [2, 3] was 2.408. For the same compound, the “Relative MIC (log10)” value [2, 4] was 2.408, the “Relative MIC (log10)” value ([2]; evolved line 6 adapted to the named antibiotic) was 2.408 and the “Relative MIC (log10)” value [2, 5] was 2.408. The “Relative MIC (log10)” value ([2]; evolved line 9 adapted to the named antibiotic) was 2.408, the “Relative MIC” value ([2]; Klebsiella pneumoniae ATCC 10031 (KP-SEN), evolved line 1) was 32 and the “Relative MIC” value ([2]; Klebsiella pneumoniae ATCC 10031 (KP-SEN), evolved line 2) was 64. For the same compound, the “Relative MIC” value ([2]; Klebsiella pneumoniae ATCC 10031 (KP-SEN), evolved line 3) was 32, the “Relative MIC” value ([2]; Klebsiella pneumoniae ATCC 10031 (KP-SEN), evolved line 4) was 256 and the “Relative MIC” value ([2]; Klebsiella pneumoniae ATCC 10031 (KP-SEN), evolved line 5) was 256. For the same compound, the “Relative MIC” value ([2]; Klebsiella pneumoniae ATCC 10031 (KP-SEN), evolved line 6) was 256, the “Relative MIC” value ([2]; Klebsiella pneumoniae ATCC 10031 (KP-SEN), evolved line 7) was 256 and the “Relative MIC” value ([2]; Klebsiella pneumoniae ATCC 10031 (KP-SEN), evolved line 8) was 256. For the same compound, the “Relative MIC” value ([2]; Klebsiella pneumoniae ATCC 10031 (KP-SEN), evolved line 9) was 256 and the “Relative MIC” value ([2]; Klebsiella pneumoniae ATCC 10031 (KP-SEN), evolved line 10) was 128.
